Values after ≈ are worked out from the molar mass of the structure shown.
What was measured:
Enterococcus faecalis = assay: Antibacterial activity against Enterococcus faecalis after 18 hr by broth microdilution technique; format: functional
Vero = assay: Cytotoxicity against Chlorocebus aethiops (African green monkey) Vero cells after 72 hr by MTT assay; format: cell-based; conditions: Chlorocebus sabaeus
A549 = assay: Cytotoxicity against Homo sapiens (human) A549 cells after 72 hr by MTT assay; format: cell-based; conditions: A549, 72 h
Escherichia coli = assay: Antibacterial activity against Escherichia coli after 18 hr by broth microdilution technique; format: functional
Aspergillus niger = assay: Antifungal activity against Aspergillus niger after 18 hr by broth microdilution technique; format: functional
Bacillus subtilis = assay: Antibacterial activity against Bacillus subtilis after 18 hr by broth microdilution technique; format: functional
[1] = system: Mycobacterium tuberculosis; assay: Antimycobacterial activity against Mycobacterium tuberculosis H37Rv after 21 days by broth dilution method; format: functional; conditions: 504 h
Klebsiella pneumoniae = assay: Antibacterial activity against Klebsiella pneumoniae after 18 hr by broth microdilution technique; format: functional
Saccharomyces cerevisiae = assay: Antifungal activity against Saccharomyces cerevisiae after 18 hr by broth microdilution technique; format: functional
Staphylococcus aureus = assay: Antibacterial activity against Staphylococcus aureus after 18 hr by broth microdilution technique; format: functional
Pseudomonas aeruginosa = assay: Antibacterial activity against Pseudomonas aeruginosa after 18 hr by broth microdilution technique; format: functional
Candida tropicalis = assay: Antifungal activity against Candida tropicalis after 18 hr by broth microdilution technique; format: functional

## Cc1ccc(C)n1-c1ccc(-c2nnc(S)o2)cc1
Enterococcus faecalis
  MIC: 4 µg/mL (≈ 14.7 µM)
Vero
  IC50: 261 µM
A549
  IC50: 254 µM
Escherichia coli
  MIC: 62.5 µg/mL (≈ 230 µM)
Aspergillus niger
  MIC: 8 µg/mL (≈ 29.5 µM)
Bacillus subtilis
  MIC: 4 µg/mL (≈ 14.7 µM)
[1]
  MIC: 2 µg/mL (≈ 7.37 µM)
Klebsiella pneumoniae
  MIC: 62.5 µg/mL (≈ 230 µM)
Saccharomyces cerevisiae
  MIC: 8 µg/mL (≈ 29.5 µM)
Staphylococcus aureus
  MIC: 2 µg/mL (≈ 7.37 µM)
Pseudomonas aeruginosa
  MIC: 62.5 µg/mL (≈ 230 µM)
Candida tropicalis
  MIC: 2 µg/mL (≈ 7.37 µM)

## CC(=O)N1N=C(c2ccc(-n3c(C)ccc3C)cc2)OC1c1ccccc1 (stereo not given)
Enterococcus faecalis
  MIC: 62.5 µg/mL (≈ 174 µM)
Vero
  IC50: 190 µM
A549
  IC50: 198 µM
Escherichia coli
  MIC: 500 µg/mL (≈ 1390 µM)
Aspergillus niger
  MIC: 31.2 µg/mL (≈ 86.9 µM)
Bacillus subtilis
  MIC: 16 µg/mL (≈ 44.5 µM)
[1]
  MIC: 16 µg/mL (≈ 44.5 µM)
Klebsiella pneumoniae
  MIC: 62.5 µg/mL (≈ 174 µM)
Saccharomyces cerevisiae
  MIC: 62.5 µg/mL (≈ 174 µM)
Staphylococcus aureus
  MIC: 62.5 µg/mL (≈ 174 µM)
Pseudomonas aeruginosa
  MIC: 500 µg/mL (≈ 1390 µM)
Candida tropicalis
  MIC: 16 µg/mL (≈ 44.5 µM)

## CC(=O)N1N=C(c2ccc(-n3c(C)ccc3C)cc2)OC1c1ccccc1Cl (stereo not given)
Enterococcus faecalis
  MIC: 31.2 µg/mL (≈ 79.3 µM)
Vero
  IC50: 201 µM
A549
  IC50: 206 µM
Escherichia coli
  MIC: 500 µg/mL (≈ 1270 µM)
Aspergillus niger
  MIC: 16 µg/mL (≈ 40.6 µM)
Bacillus subtilis
  MIC: 8 µg/mL (≈ 20.3 µM)
[1]
  MIC: 8 µg/mL (≈ 20.3 µM)
Klebsiella pneumoniae
  MIC: 31.2 µg/mL (≈ 79.3 µM)
Saccharomyces cerevisiae
  MIC: 31.2 µg/mL (≈ 79.3 µM)
Staphylococcus aureus
  MIC: 16 µg/mL (≈ 40.6 µM)
Pseudomonas aeruginosa
  MIC: 500 µg/mL (≈ 1270 µM)
Candida tropicalis
  MIC: 8 µg/mL (≈ 20.3 µM)

## CC(=O)N1N=C(c2ccc(-n3c(C)ccc3C)cc2)OC1c1ccc(Br)cc1 (stereo not given)
Enterococcus faecalis
  MIC: 31.2 µg/mL (≈ 71.3 µM)
Vero
  IC50: 195 µM
A549
  IC50: 195 µM
Escherichia coli
  MIC: 500 µg/mL (≈ 1140 µM)
Aspergillus niger
  MIC: 16 µg/mL (≈ 36.5 µM)
Bacillus subtilis
  MIC: 8 µg/mL (≈ 18.3 µM)
[1]
  MIC: 8 µg/mL (≈ 18.3 µM)
Klebsiella pneumoniae
  MIC: 31.2 µg/mL (≈ 71.3 µM)
Saccharomyces cerevisiae
  MIC: 31.2 µg/mL (≈ 71.3 µM)
Staphylococcus aureus
  MIC: 16 µg/mL (≈ 36.5 µM)
Pseudomonas aeruginosa
  MIC: 500 µg/mL (≈ 1140 µM)
Candida tropicalis
  MIC: 8 µg/mL (≈ 18.3 µM)

## CC(=O)N1N=C(c2ccc(-n3c(C)ccc3C)cc2)OC1c1c(Cl)cccc1Cl (stereo not given)
Enterococcus faecalis
  MIC: 2 µg/mL (≈ 4.67 µM)
Vero
  IC50: 220 µM
A549
  IC50: 224 µM
Escherichia coli
  MIC: 16 µg/mL (≈ 37.4 µM)
Aspergillus niger
  MIC: 4 µg/mL (≈ 9.34 µM)
Bacillus subtilis
  MIC: 4 µg/mL (≈ 9.34 µM)
[1]
  MIC: 2 µg/mL (≈ 4.67 µM)
Klebsiella pneumoniae
  MIC: 62.5 µg/mL (≈ 146 µM)
Saccharomyces cerevisiae
  MIC: 16 µg/mL (≈ 37.4 µM)
Staphylococcus aureus
  MIC: 2 µg/mL (≈ 4.67 µM)
Pseudomonas aeruginosa
  MIC: 8 µg/mL (≈ 18.7 µM)
Candida tropicalis
  MIC: 4 µg/mL (≈ 9.34 µM)

## CC(=O)N1N=C(c2ccc(-n3c(C)ccc3C)cc2)OC1c1cccc([N+](=O)[O-])c1 (stereo not given)
Enterococcus faecalis
  MIC: 31.2 µg/mL (≈ 77.3 µM)
Vero
  IC50: 188 µM
A549
  IC50: 197 µM
Escherichia coli
  MIC: 62.5 µg/mL (≈ 155 µM)
Aspergillus niger
  MIC: 8 µg/mL (≈ 19.8 µM)
Bacillus subtilis
  MIC: 16 µg/mL (≈ 39.6 µM)
[1]
  MIC: 31.2 µg/mL (≈ 77.3 µM)
Klebsiella pneumoniae
  MIC: 62.5 µg/mL (≈ 155 µM)
Saccharomyces cerevisiae
  MIC: 31.2 µg/mL (≈ 77.3 µM)
Staphylococcus aureus
  MIC: 31.2 µg/mL (≈ 77.3 µM)
Pseudomonas aeruginosa
  MIC: 62.5 µg/mL (≈ 155 µM)
Candida tropicalis
  MIC: 8 µg/mL (≈ 19.8 µM)

## CC(=O)N1N=C(c2ccc(-n3c(C)ccc3C)cc2)OC1c1ccccc1[N+](=O)[O-] (stereo not given)
Enterococcus faecalis
  MIC: 31.2 µg/mL (≈ 77.3 µM)
Vero
  IC50: 175 µM
A549
  IC50: 182 µM
Escherichia coli
  MIC: 500 µg/mL (≈ 1240 µM)
Aspergillus niger
  MIC: 8 µg/mL (≈ 19.8 µM)
Bacillus subtilis
  MIC: 16 µg/mL (≈ 39.6 µM)
[1]
  MIC: 31.2 µg/mL (≈ 77.3 µM)
Klebsiella pneumoniae
  MIC: 500 µg/mL (≈ 1240 µM)
Saccharomyces cerevisiae
  MIC: 31.2 µg/mL (≈ 77.3 µM)
Staphylococcus aureus
  MIC: 31.2 µg/mL (≈ 77.3 µM)
Pseudomonas aeruginosa
  MIC: 500 µg/mL (≈ 1240 µM)
Candida tropicalis
  MIC: 8 µg/mL (≈ 19.8 µM)

## CC(=O)N1N=C(c2ccc(-n3c(C)ccc3C)cc2)OC1c1ccc(O)cc1 (stereo not given)
Enterococcus faecalis
  MIC: 31.2 µg/mL (≈ 83.2 µM)
Vero
  IC50: 187 µM
A549
  IC50: 190 µM
Escherichia coli
  MIC: 62.5 µg/mL (≈ 166 µM)
Aspergillus niger
  MIC: 8 µg/mL (≈ 21.3 µM)
Bacillus subtilis
  MIC: 16 µg/mL (≈ 42.6 µM)
[1]
  MIC: 16 µg/mL (≈ 42.6 µM)
Klebsiella pneumoniae
  MIC: 31.2 µg/mL (≈ 83.2 µM)
Saccharomyces cerevisiae
  MIC: 31.2 µg/mL (≈ 83.2 µM)
Staphylococcus aureus
  MIC: 31.2 µg/mL (≈ 83.2 µM)
Pseudomonas aeruginosa
  MIC: 62.5 µg/mL (≈ 166 µM)
Candida tropicalis
  MIC: 8 µg/mL (≈ 21.3 µM)

## CC(=O)N1N=C(c2ccc(-n3c(C)ccc3C)cc2)OC1c1ccc(N(C)C)cc1 (stereo not given)
Enterococcus faecalis
  MIC: 31.2 µg/mL (≈ 77.6 µM)
Vero
  IC50: 175 µM
A549
  IC50: 186 µM
Escherichia coli
  MIC: 500 µg/mL (≈ 1240 µM)
Aspergillus niger
  MIC: 31.2 µg/mL (≈ 77.6 µM)
Bacillus subtilis
  MIC: 16 µg/mL (≈ 39.8 µM)
[1]
  MIC: 16 µg/mL (≈ 39.8 µM)
Klebsiella pneumoniae
  MIC: 31.2 µg/mL (≈ 77.6 µM)
Saccharomyces cerevisiae
  MIC: 31.2 µg/mL (≈ 77.6 µM)
Staphylococcus aureus
  MIC: 31.2 µg/mL (≈ 77.6 µM)
Pseudomonas aeruginosa
  MIC: 500 µg/mL (≈ 1240 µM)
Candida tropicalis
  MIC: 31.2 µg/mL (≈ 77.6 µM)

## Cc1ccc(C)n1NC(=O)c1ccc(-n2c(C)ccc2C)cc1
Enterococcus faecalis
  MIC: 16 µg/mL (≈ 52 µM)
Vero
  IC50: 230 µM
A549
  IC50: 225 µM
Escherichia coli
  MIC: 500 µg/mL (≈ 1630 µM)
Aspergillus niger
  MIC: 16 µg/mL (≈ 52 µM)
Bacillus subtilis
  MIC: 16 µg/mL (≈ 52 µM)
[1]
  MIC: 2 µg/mL (≈ 6.51 µM)
Klebsiella pneumoniae
  MIC: 62.5 µg/mL (≈ 203 µM)
Saccharomyces cerevisiae
  MIC: 16 µg/mL (≈ 52 µM)
Staphylococcus aureus
  MIC: 2 µg/mL (≈ 6.51 µM)
Pseudomonas aeruginosa
  MIC: 500 µg/mL (≈ 1630 µM)
Candida tropicalis
  MIC: 4 µg/mL (≈ 13 µM)

## O=C(NNC(=O)c1ccc(-n2cccc2)cc1)c1ccccc1
Enterococcus faecalis
  MIC: 62.5 µg/mL (≈ 205 µM)
Vero
  IC50: 200 µM
A549
  IC50: 215 µM
Escherichia coli
  MIC: 31.2 µg/mL (≈ 102 µM)
Aspergillus niger
  MIC: 31.2 µg/mL (≈ 102 µM)
Bacillus subtilis
  MIC: 16 µg/mL (≈ 52.4 µM)
[1]
  MIC: 8 µg/mL (≈ 26.2 µM)
Klebsiella pneumoniae
  MIC: > 500 µg/mL
Saccharomyces cerevisiae
  MIC: 31.2 µg/mL (≈ 102 µM)
Staphylococcus aureus
  MIC: 62.5 µg/mL (≈ 205 µM)
Pseudomonas aeruginosa
  MIC: 62.5 µg/mL (≈ 205 µM)
Candida tropicalis
  MIC: 31.2 µg/mL (≈ 102 µM)

## O=C(NNC(=O)c1ccccc1Br)c1ccc(-n2cccc2)cc1
Enterococcus faecalis
  MIC: 62.5 µg/mL (≈ 163 µM)
Vero
  IC50: 198 µM
A549
  IC50: 201 µM
Escherichia coli
  MIC: 16 µg/mL (≈ 41.6 µM)
Aspergillus niger
  MIC: 16 µg/mL (≈ 41.6 µM)
Bacillus subtilis
  MIC: 16 µg/mL (≈ 41.6 µM)
[1]
  MIC: 8 µg/mL (≈ 20.8 µM)
Klebsiella pneumoniae
  MIC: > 500 µg/mL
Saccharomyces cerevisiae
  MIC: 31.2 µg/mL (≈ 81.3 µM)
Staphylococcus aureus
  MIC: 62.5 µg/mL (≈ 163 µM)
Pseudomonas aeruginosa
  MIC: 16 µg/mL (≈ 41.6 µM)
Candida tropicalis
  MIC: 8 µg/mL (≈ 20.8 µM)

## O=C(NNC(=O)c1ccc(-n2cccc2)cc1)c1ccc(Br)cc1
Enterococcus faecalis
  MIC: 31.2 µg/mL (≈ 81.3 µM)
Vero
  IC50: 186 µM
A549
  IC50: 201 µM
Escherichia coli
  MIC: 16 µg/mL (≈ 41.6 µM)
Aspergillus niger
  MIC: 16 µg/mL (≈ 41.6 µM)
Bacillus subtilis
  MIC: 16 µg/mL (≈ 41.6 µM)
[1]
  MIC: 8 µg/mL (≈ 20.8 µM)
Klebsiella pneumoniae
  MIC: > 500 µg/mL
Saccharomyces cerevisiae
  MIC: 31.2 µg/mL (≈ 81.3 µM)
Staphylococcus aureus
  MIC: 62.5 µg/mL (≈ 163 µM)
Pseudomonas aeruginosa
  MIC: 16 µg/mL (≈ 41.6 µM)
Candida tropicalis
  MIC: 8 µg/mL (≈ 20.8 µM)

## Cc1ccc(C)n1-c1ccc(-c2n[nH]c(=S)n2N)cc1
Enterococcus faecalis
  MIC: 16 µg/mL (≈ 56.1 µM)
Vero
  IC50: 160 µM
A549
  IC50: 170 µM
Escherichia coli
  MIC: 500 µg/mL (≈ 1750 µM)
Aspergillus niger
  MIC: 4 µg/mL (≈ 14 µM)
Bacillus subtilis
  MIC: 31.2 µg/mL (≈ 110 µM)
[1]
  MIC: 4 µg/mL (≈ 14 µM)
Klebsiella pneumoniae
  MIC: 500 µg/mL (≈ 1750 µM)
Saccharomyces cerevisiae
  MIC: 4 µg/mL (≈ 14 µM)
Staphylococcus aureus
  MIC: 16 µg/mL (≈ 56.1 µM)
Pseudomonas aeruginosa
  MIC: 500 µg/mL (≈ 1750 µM)
Candida tropicalis
  MIC: 2 µg/mL (≈ 7.01 µM)

## CC(=O)NNC(=O)c1ccc(-n2c(C)ccc2C)cc1
Enterococcus faecalis
  MIC: 31.2 µg/mL (≈ 115 µM)
Vero
  IC50: 172 µM
A549
  IC50: 180 µM
Escherichia coli
  MIC: 500 µg/mL (≈ 1840 µM)
Aspergillus niger
  MIC: 62.5 µg/mL (≈ 230 µM)
Bacillus subtilis
  MIC: 16 µg/mL (≈ 59 µM)
[1]
  MIC: 4 µg/mL (≈ 14.7 µM)
Klebsiella pneumoniae
  MIC: 500 µg/mL (≈ 1840 µM)
Saccharomyces cerevisiae
  MIC: 62.5 µg/mL (≈ 230 µM)
Staphylococcus aureus
  MIC: 31.2 µg/mL (≈ 115 µM)
Pseudomonas aeruginosa
  MIC: 500 µg/mL (≈ 1840 µM)
Candida tropicalis
  MIC: 62.5 µg/mL (≈ 230 µM)
